Experimental data taken from patent US8334262B2, “Cognitive function” (priority 2008, dated 2012).

What was measured:
PKR [1] = target: T1, PKR (Rattus norvegicus, UniProt Q63184); assay: PKR phosphorylation in hippocampal slices from mature rats (Western blot); format: cell-based
T1 construct: from tissue; host or cells: rat hippocampal slices (400 µm)
T1 sequence (Q63184 1-513): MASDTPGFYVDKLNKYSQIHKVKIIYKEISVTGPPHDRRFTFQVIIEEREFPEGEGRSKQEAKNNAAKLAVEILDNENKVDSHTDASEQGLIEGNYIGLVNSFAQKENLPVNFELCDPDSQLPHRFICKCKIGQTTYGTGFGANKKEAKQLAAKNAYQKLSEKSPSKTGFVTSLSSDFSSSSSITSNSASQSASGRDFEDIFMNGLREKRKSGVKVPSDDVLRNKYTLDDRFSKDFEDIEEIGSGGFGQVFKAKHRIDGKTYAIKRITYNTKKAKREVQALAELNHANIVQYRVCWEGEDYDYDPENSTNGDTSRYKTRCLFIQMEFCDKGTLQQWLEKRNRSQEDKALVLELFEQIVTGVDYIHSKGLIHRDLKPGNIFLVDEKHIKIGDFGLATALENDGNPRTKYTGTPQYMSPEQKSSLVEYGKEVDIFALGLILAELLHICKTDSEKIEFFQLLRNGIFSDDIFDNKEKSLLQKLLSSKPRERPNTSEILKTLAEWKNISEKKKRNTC
Experimental: (§1) In order to test biochemically the ability of C-16 to reduce eIF-2α phosphorylation in the mature brain, C-16 was applied to hippocampal slices from mature rats substantially as described by Kaphzan et al. (2007) Journal of Neurochemistry 103, 388-399 but with modifications as set out below.
(§2) After decapitation the brain was immediately immersed in cold (4° C.) carboxygenated (95% O2, 5% CO2) Artificial Cerebro-Spinal Fluid (ACSF [in mM]: 124 NaCl, 5 KCl, 1.2 MgSO4, 1.2 NaH2PO4, 26 NaHCO3, 10 D-glucose, 2.4 CaCl), and after about 120s both hippocampi were dissected out in a plate filled with cold (4° C.) ACSF on ice. The hippocampi were put on a cooled stand of a Mcllwain tissue chopper TC752 (Campden Instruments Ltd, UK), cut into 400-μm slices, and then put back into a chamber filled with carboxygenated cold (4° C.) ACSF.
(§3) The slices were transferred to a holding chamber for about 20-30 min, to reach room temperature, and were then transferred to a six-chamber pharmacological instrument, designed to our specifications by Scientific Systems Design Company (Ontario, Canada). All of the slices tested in any one experiment (i.e., in all six chambers) were produced by the same procedure from the same rat. The hippocampal slices were heated to 32° C. and were kept in the chamber for 5 h before any pharmacological intervention. Each chamber contained four slices. The slices were perfused with heated and carboxygenated ACSF (with or without 50 μM C-16 (experimental and control groups respectively)) via a Model MP3 peristaltic pump (Gilson, France), at a rate of ˜2 mL min for 10 mins. The chamber space was carboxygenated and humidified. The chamber was an interface type, and the slices were placed upon a lens paper.
(§4) The slices were analysed occasionally for their viability using extracellular recordings of fEPSP in the CA1 region. […]
(§5) The time window of C-16 effect was analysed by Western blot using specific antibodies for phosphorylated and dephosphorylated forms of PKR and eIF-2α. […]

eIF-2α = eIF-2α phosphorylation in hippocampal slices from mature rats (Western blot); format: cell-based, rat
Experimental: as §1, §2, §3, §4, §5

rats [2] = assay: Novel taste learning, latent inhibition (LI) paradigm; format: in vivo, rat
Experimental: CTA was performed as described earlier (Rosenblum et al., (1993) Behavioral and Neural Biology 59, 49-56). Saccharin (0.1% w/v, sodium salt) or NaCl (0.3%) were used as the unfamiliar taste in training (i.e. the conditioned stimulus (CS)), and injection of LiCl (0.15 m, 2% body weight, i.p.) as the malaise-inducing agent (unconditioned stimulus (UCS)). At the beginning of the behavioral experiment, the rats were trained for 3 days to obtain their daily water ration once a day for 15 min from two pipettes each containing 10 mL of water. On the conditioning day, they were allowed to drink the saccharin solution instead of water from similar pipettes for 15 min, and 50 min later were injected with LiCl. Under these conditions, 2 days after training the conditioned rats preferred water to saccharin in a multiple choice test situation (three pipettes with 5 mL of saccharin each and three with 5 mL of water each), whereas non-conditioned rats preferred saccharin to water. The behavioural data are presented in terms of aversion index, defined as [mL water/(mL water+mL saccharin)] consumed in the test; 0.5 is a chance level, and the higher the aversion index, the more the rats prefer water to the conditioned taste. […]

rats [3] = assay: Weak conditioned taste aversion (CTA); format: in vivo, rat
Sprague-Dawly male rats = assay: Odour maze learning (olfactory discrimination, 4-arm radial maze); format: in vivo, rat; settings: i.p. every day, 2 hr before training; day 3 & 6 p<0.05, n=4
Experimental: Subjects and apparatus: Age-matched young adult Sprague-Dawly male rats were used. Prior to training they were maintained on a 23.5 hr water-deprivation schedule, with food available ad libitum. Olfactory discrimination training protocol was performed daily on each trained and pseudo-trained rat in a 4-arm radial maze, as previously described (Cohen-Matsliah et al. (2007) Journal of Neuroscience 27, 12584-12589), with commercial odours that are regularly used in the cosmetics and food industry.
(§6) C-16 was injected i.p. every day, 2 hr before odour maze training. There was 48 hr break between day 3 and 4 without training or injection.
Training: Olfactory training consisted of 20 trials per day for each rat as previously described (Cohen-Matsliah et al. (2007)). In short, in each trial the rat had to choose between two odours (positive- and negative-cue) presented simultaneously. Rats designated to the trained group were rewarded upon choosing the positive cue. The criterion for learning was at least 80% positive-cue choices in the last 10 trials of a training day, as was previously used (Cohen-Matsliah et al. (2007)). Training for a new pair began only after training for the […] pair was completed for all rats.

rats [4] = assay: Contextual fear conditioning (freezing); format: in vivo, rat; settings: i.p. 2 hr before conditioning; tested 24 hours and 10 days later; p<0.05
Description: The entire behavioural procedure took place in the same conditioning chamber containing floor grids and transparent Plexiglas walls. The context of the chamber served as a conditioned stimulus (CS). Rats were placed in the chamber for an approximately two minute adjustment before they were given a foot-shock (0.8 mA for 0.5 sec), which was delivered to the floor bars and served as the unconditioned stimulus (US). The CS-US pairings were given three times. The inter-trial interval was 90-120 seconds throughout. The video images are transferred to a computer (fear-conditioning experiments, control experiment, Dell OptiPlex GXpro) equipped with an analysis program (Image (http://rsb.info.nih.gov/nih-image)) and a macroprogram (P. Schmid, Behavioral Neurobiology Laboratory, Swiss Federal Institute of Technology Zurich). The percentage of changed pixels between two adjacent 1 s images from one of the test boxes was used as a measure of activity. Freezing is commonly identified as cessation of any movement except for respiratory movements. If the percentage of changed pixels between two adjacent 1 s images was <0.05%, this corresponded well to such immobility and the behavior of the rat was scored as “freezing” for the respective second.
C-16 was injected i.p. 2 hr before contextual fear condition. […]

rats [5] = assay: Observation of side effects in rats injected with C-16; format: in vivo, rat
Experimental: Conditioned taste aversion and novel taste learning were enhanced.
as §6

PKR [6] = target: PKR (Homo sapiens, UniProt P19525); settings: by inhibiting the ATP-binding site of PKR; cited from earlier work
[7] = 50 μM C-16 perfused on hippocampal slices
[8] = time window, Western blot, 1 hr after treatment

PKR (Homo sapiens, UniProt P19525), sequence (P19525 whole entry, the tested form may be a part): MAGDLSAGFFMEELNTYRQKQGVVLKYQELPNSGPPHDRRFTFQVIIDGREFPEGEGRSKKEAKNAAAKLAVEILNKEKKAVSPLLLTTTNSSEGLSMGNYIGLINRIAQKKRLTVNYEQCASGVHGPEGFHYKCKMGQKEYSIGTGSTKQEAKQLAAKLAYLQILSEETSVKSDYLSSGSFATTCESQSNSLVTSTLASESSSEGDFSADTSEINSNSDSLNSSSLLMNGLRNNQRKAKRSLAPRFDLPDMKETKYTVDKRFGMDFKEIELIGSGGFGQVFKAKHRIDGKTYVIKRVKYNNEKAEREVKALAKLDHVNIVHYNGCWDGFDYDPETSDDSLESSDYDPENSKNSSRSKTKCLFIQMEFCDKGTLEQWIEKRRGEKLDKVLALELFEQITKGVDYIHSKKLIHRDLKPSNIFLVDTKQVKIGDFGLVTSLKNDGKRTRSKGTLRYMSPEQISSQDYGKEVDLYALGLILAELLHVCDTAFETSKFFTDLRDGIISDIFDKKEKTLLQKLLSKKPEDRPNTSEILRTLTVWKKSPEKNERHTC

SMILES: O=C1Nc2ccc3ncsc3c2/C1=C/c1c[nH]cn1 [Compound C-16]
- PKR phosphorylation in the mature hippocampus (FIG. 2) (PKR [1]; [7]): inhibited
- time of return of PKR phosphorylation to base line following treatment (PKR [1]; time window, Western blot): 3 to 4 h
- C-16 effect on PKR phosphorylation after 1 hr (PKR [1]; [8]): strong effect
- eIF-2α phosphorylation in the mature hippocampus (FIG. 3) (eIF-2α; [7]): inhibited
- time of return of eIF-2α phosphorylation to base line following treatment (eIF-2α; time window, Western blot): 3 to 4 h
- C-16 effect on eIF-2α phosphorylation after 1 hr (eIF-2α; [8]): strong effect
- novel taste memory of 0.1% Saccharin (FIG. 8) (rats [2]; 30 min after local microinjection into the gustatory cortex, 50 μM, p<0.05): enhances novel taste memory
- novel taste memory of 0.1% Saccharin (FIG. 7) (rats [2]; 2 hr after i.p. application, p<0.01, n=6): enhances novel taste memory
- weak CTA (0.05M) to 0.3% NaCl (FIG. 10) (rats [3]; 30 min after local injection into the gustatory cortex, 50 μM, p<0.05): enhances weak CTA
- weak Conditioned Taste Aversion (0.05M) to 0.3% NaCl (FIG. 9) (rats [3]; 2 hr after i.p. application, n=8): enhances weak Conditioned Taste Aversion
- odour maze learning (FIG. 11) (Sprague-Dawly male rats): enhances odour maze learning
- contextual fear condition, average freezing between 4th and 7th minutes (FIG. 12) (rats [4]): enhances contextual fear condition
- side effects on repeated i.p. injection (rats [5]; i.p. once a day over a period of more than 7 days, odour maze experiment): without any clear disadvantageous side effect
- other effects in taste learning experiments (rats [5]; local and i.p. injection): no other effect that could be measured
- PKR kinase activity (PKR [6]): able to inhibit PKR's kinase activity
